Key:
[1] = Modeling of Mn and Zn levels in vaginal fluid delivered from slow release Z2 formulation; parameters: species or system women
Protocol: Six women each received 3 doses of formulation Z2 separated by 48 hours. Vaginal fluid swabs were collected at t=0, 2, 4, 8, 12, 18, 24, 30, 36, and 42 hours post dose and vaginal fluid concentrations of lactoferrin and mannitol were determined. Average concentrations for the combined 18 dose administrations were obtained based on calculation of Area Under Curve for the locally estimated scatterplot smoothing (Loess) profile of lactoferrin and mannitol concentrations assuming 6 mL volume of distribution.

[2] = parameters: species or system women; conditions: female, human, in vivo
Protocol: Elevated levels of calprotectin in BV and in L iners-dominated vaginal microbiomes sequester manganese and zinc, preventing growth of L crispatus its maintenance of a healthy vaginal microbiome. […] Six women each received 3 doses of formulation Z2 separated by 48 hours. Vaginal fluid swabs were collected at t=0, 2, 4, 8, 12, 18, 24, 30, 36, and 42 hours post dose and vaginal fluid concentrations of lactoferrin and mannitol were determined. Average concentrations for the combined 18 dose administrations were obtained based on calculation of Area Under Curve for the locally estimated scatterplot smoothing (Loess) profile of lactoferrin and mannitol concentrations assuming 6 mL volume of distribution. The average concentration of lactoferrin was 33 mg/mL and the average concentrations of mannitol was 20 mg/mL. Average concentrations of both substances correspond to 0.1 fraction or 10% of the administered dose, 300 mg lactoferrin and 195 mg mannitol per Z2 tablet respectively. The 0.1 factor was used to estimate the expected average elemental Mn concentration based on the initial dose per tablet.

Which results are given for `[Zn]` [Zn, zinc]?
predicted Cmax, fold below the concentration of Zn used in MRS media ([1]; 250 μg dose of Zn): ~5 fold; predicted Cmax, fold above the amount of Zn that could be bound by calprotectin in BV ([1]; 250 μg dose of Zn, 95% CI of median based on 2:1 Zn/CP): ~4 fold

Which “average concentration as fraction of the administered dose” value [2] does the source give for `OC[C@@H](O)[C@@H](O)[C@H](O)[C@H](O)CO` [mannitol, reference compound] here?
Its value is 10%.

With `[Mn+2]` [Mn, manganese] as the compound, how does the “predicted Cmax, fold below the concentration of Mn used in MRS media” value ([1]; 50 μg dose of Mn) read?
The value was about 2 fold.

And the “predicted Cmax, fold above the amount of Mn that could be bound by calprotectin in BV” value ([1]; 50 μg dose of Mn, 95% CI of median 70 M based on 1:1 Mn/CP)?
Its value is about 2 fold.

Reference: patent US20250127807A1, “TREATMENT OF VAGINAL DYSBIOTIC CONDITIONS WITH ASSOCIATED ELEVATED VAGINAL CALPROTECTIN” (priority 2022, published 2025)
